Legend:
Whole blood stability = assay type: in vitro ADME; conditions: 1 μM, 37° C.
Excerpt: (§1) The breakdown of a prodrug in vivo could occur in one or more of several different compartments including for example, but not limited to blood/plasma, liver, stomach, target tissue (e.g. tumour). The preferred location for optimum formation of the parent drug will depend on the disposition in vivo of the pro-drug and parent and an understanding of the optimum concentrations of each required in the circulation to maximise exposure to the active moiety in the target tissue. The potential for pro-drug molecules to deliver the active parent drug may be assessed in vitro by measuring the breakdown of a pro-drug in the presence of relevant body fluids. For the purpose of gaining a preliminary understanding of the stability of compounds of the invention to enzymatic hydrolysis in two such bodily compartments, compound turnover has been studied following incubation in whole blood and liver homogenate from mice and humans. The data obtained from these studies provide a preliminary understanding of which of the prodrugs are better able to deliver parent compound (i.e. are more rapidly broken down to parent compound) in these compartments. Further studies could also determine stability in other compartments (e.g. in the target tumours by measuring stability in tumour lysates).
For these studies, human whole blood was collected from 3 male healthy volunteers in lithium heparin tubes. The blood was pooled and stored at room temperature for a maximum of 2 hours prior to initiation of incubations. Mouse blood was collected from 70 male mice, strain: Balb/c into lithium heparin tubes and pooled.
(§2) Each incubation consisted of a volume of 1 mL. Test compound dosing solutions were then spiked into each homogenate at a final compound concentration of 1 μM. Incubations were performed in the atmosphere in a shaking water bath at 37° C.
(§3) An aliquot of incubation samples was removed into an equal volume of ice-cold acetonitrile at various time points. Samples (whole blood/homogenate+acetonitrile) were centrifuged and aliquots of the supernatant were analysed by HPLC-MS/MS.
(§4) The compound X (2,4-dihydroxy-5-isopropyl-phenyl)-[5-(4-methyl-piperazin-1-ylmethyl)-1,3-dihydro-isoindol-2-yl]-methanone) and the compounds of Examples 1 to 24 were incubated in both whole blood and liver homogenate by Quotient Bioresearch (Rushden, UK). The percentage remaining of parent compound following incubation in whole blood/liver homogenate from human and mouse are set out in the table below.

[1] = Liver homogenate stability; assay type: in vitro ADME; conditions: 1 μM, 37° C., 120 mins
Excerpt: as §1
Mouse livers were obtained from 20 male mice, strain: Balb/c from stock animals. Human liver tissue was obtained from 3 individuals sourced from a UK human tissue bank. The livers were stored frozen. The livers were defrosted and then homogenised to form a homogenate of approximately 30% (w/v) in phosphate buffer, 100 mM, pH 7.4 (referred to as ‘buffer’). Homogenates were kept on ice until use.
as §2, §3, §4

CC(C)c1cc(C(=O)N2Cc3ccc(CN4CCN(C)CC4)cc3C2)c(O)cc1OC(=O)N1CCOCC1 [Example 21, 2-[4-(morpholin-4-ylcarbonyloxy)-2-hydroxy-5-isopropyl-benzoyl]-5-(4-methyl-piperazin-1-ylmethyl)-1,3-dihydro-isoindole]
Percentage remaining Human blood (Whole blood stability; 120 mins): 82% | Percentage remaining Mouse blood (Whole blood stability; 120 mins): 0% | Percentage remaining Human Liver [1]: 0% | Percentage remaining Mouse Liver [1]: 0%

COCOc1cc(O)c(C(=O)N2Cc3ccc(CN4CCN(C)CC4)cc3C2)cc1C(C)C [Example 8, [2-Hydroxy-5-isopropyl-4-(methoxymethyloxy)-phenyl]-[5-(4-methyl-piperazin-1-ylmethyl)-1,3-dihydro-isoindol-2-yl]-methanone]
Percentage remaining Human blood (Whole blood stability; 120 mins): 114% | Percentage remaining Mouse blood (Whole blood stability; 120 mins): 104% | Percentage remaining Human Liver [1]: 102% | Percentage remaining Mouse Liver [1]: 79%

CC(C)c1cc(C(=O)N2Cc3ccc(CN4CCN(C)CC4)cc3C2)c(O)cc1OC(=O)N1CCCC1 [Example 19, 2-[4-(pyrrolidin-1-ylcarbonyloxy)-2-hydroxy-5-isopropyl-benzoyl]-5-(4-methyl-piperazin-1-ylmethyl)-1,3-dihydro-isoindole]
Percentage remaining Mouse blood (Whole blood stability; 60 mins (footnote *)): 79% * | Percentage remaining Human blood (Whole blood stability; 120 mins): 102% | Percentage remaining Human Liver [1]: 0% | Percentage remaining Mouse Liver [1]: 0%

CC(C)c1cc(C(=O)N2Cc3ccc(CN4CCN(C)CC4)cc3C2)c(OC(=O)N2CCOCC2)cc1OC(=O)N1CCOCC1 [Example 13, 2-[2,4-bis-(morpholin-4-ylcarbonyloxy)-5-isopropyl-benzoyl]-5-(4-methyl-piperazin-1-ylmethyl)-1,3-dihydro-isoindole]
Percentage remaining Human blood (Whole blood stability; 120 mins): 76% | Percentage remaining Mouse blood (Whole blood stability; 120 mins): 0% | Percentage remaining Human Liver [1]: 0% | Percentage remaining Mouse Liver [1]: 0%

COc1cc(O)c(C(C)C)cc1C(=O)N1Cc2ccc(CN3CCN(C)CC3)cc2C1 [Example 1, (4-Hydroxy-5-isopropyl-2-methoxy-phenyl)-[5-(4-methyl-piperazin-1-ylmethyl)-1,3-dihydro-isoindol-2-yl]-methanone]
Percentage remaining Human blood (Whole blood stability; 120 mins): 100% | Percentage remaining Mouse blood (Whole blood stability; 120 mins): 104% | Percentage remaining Human Liver [1]: 99% | Percentage remaining Mouse Liver [1]: 104%

CC(C)c1cc(C(=O)N2Cc3ccc(CN4CCN(C)CC4)cc3C2)c(OC(=O)OC(C)(C)C)cc1OC(=O)N(C)C [Example 22, Carbonic acid tert-butyl ester 5-dimethylcarbamoyloxy-4-isopropyl-2-[5-(4-methyl-piperazin-1-ylmethyl)-1,3-dihydro-isoindole-2-carbonyl]-phenyl ester]
Percentage remaining Human blood (Whole blood stability; 120 mins): 18% | Percentage remaining Mouse blood (Whole blood stability; 120 mins): 0% | Percentage remaining Human Liver [1]: 6% | Percentage remaining Mouse Liver [1]: 0%

CC(C)c1cc(C(=O)N2Cc3ccc(CN4CCN(C)CC4)cc3C2)c(OC(=O)N2CCOCC2)cc1O [Example 20, 2-[2-(morpholin-4-ylcarbonyloxy)-4-hydroxy-5-isopropyl-benzoyl]-5-(4-methyl-piperazin-1-ylmethyl)-1,3-dihydro-isoindole]
Percentage remaining Human blood (Whole blood stability; 120 mins): 97% | Percentage remaining Mouse blood (Whole blood stability; 120 mins): 16% | Percentage remaining Human Liver [1]: 23% | Percentage remaining Mouse Liver [1]: 45%

CC(C)c1cc(C(=O)N2Cc3ccc(CN4CCN(C)CC4)cc3C2)c(O)cc1O [Compound X, (2,4-dihydroxy-5-isopropyl-phenyl)-[5-(4-methyl-piperazin-1-ylmethyl)-1,3-dihydro-isoindol-2-yl]-methanone]
Percentage remaining Human blood (Whole blood stability; 120 mins): 100% | Percentage remaining Mouse blood (Whole blood stability; 120 mins): 102% | Percentage remaining Human Liver [1]: 94% | Percentage remaining Mouse Liver [1]: 112%

C=CCOc1cc(OCC=C)c(C(C)C)cc1C(=O)N1Cc2ccc(CN3CCN(C)CC3)cc2C1 [Example 6, (2,4-Bis-allyloxy-5-isopropyl-phenyl)-[5-(4-methyl-piperazin-1-ylmethyl)-1,3-dihydro-isoindol-2-yl]-methanone]
Percentage remaining Human blood (Whole blood stability; 120 mins): 105% | Percentage remaining Mouse blood (Whole blood stability; 120 mins): 125% | Percentage remaining Human Liver [1]: 94% | Percentage remaining Mouse Liver [1]: 75%

CC(C)c1cc(C(=O)N2Cc3ccc(CN4CCN(C)CC4)cc3C2)c(OC(=O)N2CCCC2)cc1OC(=O)N1CCCC1 [Example 12, 2-[2,4-bis-(pyrrolidin-1-ylcarbonyloxy)-5-isopropyl-benzoyl]-5-(4-methyl-piperazin-1-ylmethyl)-1,3-dihydro-isoindole]
Percentage remaining Human blood (Whole blood stability; 120 mins): 110% | Percentage remaining Mouse blood (Whole blood stability; 120 mins): 37% | Percentage remaining Human Liver [1]: 43% | Percentage remaining Mouse Liver [1]: 1%

CC(C)c1cc(C(=O)N2Cc3ccc(CN4CCN(C)CC4)cc3C2)c(OC(=O)OC(C)(C)C)cc1OC(=O)OC(C)(C)C [Example 23, Carbonic acid 5-tert-butoxycarbonyloxy-4-isopropyl-2-[5-(4-methyl-piperazin-1-ylmethyl)-1,3-dihydro-isoindole-2-carbonyl]-phenyl ester tert-butyl ester]
Percentage remaining Human blood (Whole blood stability; 120 mins): 26% | Percentage remaining Mouse blood (Whole blood stability; 120 mins): 0% | Percentage remaining Human Liver [1]: 1% | Percentage remaining Mouse Liver [1]: 0%

CCN(CC)C(=O)Oc1cc(O)c(C(=O)N2Cc3ccc(CN4CCN(C)CC4)cc3C2)cc1C(C)C [Example 15, Diethyl-carbamic acid 5-hydroxy-2-isopropyl-4-[5-(4-methyl-piperazin-1-ylmethyl)-1,3-dihydro-isoindole-2-carbonyl]-phenyl ester]
Percentage remaining Human blood (Whole blood stability; 120 mins): 123% | Percentage remaining Mouse blood (Whole blood stability; 120 mins): 58% | Percentage remaining Human Liver [1]: 35% | Percentage remaining Mouse Liver [1]: 26%

CCN(CC)C(=O)Oc1cc(O)c(C(C)C)cc1C(=O)N1Cc2ccc(CN3CCN(C)CC3)cc2C1 [Example 14, Diethyl-carbamic acid 5-hydroxy-4-isopropyl-2-[5-(4-methyl-piperazin-1-ylmethyl)-1,3-dihydro-isoindole-2-carbonyl]-phenyl ester]
Percentage remaining Human blood (Whole blood stability; 120 mins): 94% | Percentage remaining Mouse blood (Whole blood stability; 120 mins): 94% | Percentage remaining Human Liver [1]: 88% | Percentage remaining Mouse Liver [1]: 89%

CC(C)c1cc(C(=O)N2Cc3ccc(CN4CCN(C)CC4)cc3C2)c(OC(=O)N2CCCC2)cc1O [Example 18, 2-[2-(pyrrolidin-1-ylcarbonyloxy)-4-hydroxy-5-isopropyl-benzoyl]-5-(4-methyl-piperazin-1-ylmethyl)-1,3-dihydro-isoindole]
Percentage remaining Mouse blood (Whole blood stability; 60 mins (footnote *)): 103% * | Percentage remaining Human blood (Whole blood stability; 120 mins): 110% | Percentage remaining Human Liver [1]: 65% | Percentage remaining Mouse Liver [1]: 80%

C=CCOc1cc(O)c(C(=O)N2Cc3ccc(CN4CCN(C)CC4)cc3C2)cc1C(C)C [Example 5, (4-Allyloxy-2-hydroxy-5-isopropyl-phenyl)-[5-(4-methyl-piperazin-1-ylmethyl)-1,3-dihydro-isoindol-2-yl]-methanone]
Percentage remaining Human blood (Whole blood stability; 120 mins): 115% | Percentage remaining Mouse blood (Whole blood stability; 120 mins): 124% | Percentage remaining Human Liver [1]: 81% | Percentage remaining Mouse Liver [1]: 86%

C=CCOc1cc(O)c(C(C)C)cc1C(=O)N1Cc2ccc(CN3CCN(C)CC3)cc2C1 [Example 4, (2-Allyloxy-4-hydroxy-5-isopropyl-phenyl)-[5-(4-methyl-piperazin-1-ylmethyl)-1,3-dihydro-isoindol-2-yl]-methanone]
Percentage remaining Human blood (Whole blood stability; 120 mins): 109% | Percentage remaining Mouse blood (Whole blood stability; 120 mins): 106% | Percentage remaining Human Liver [1]: 92% | Percentage remaining Mouse Liver [1]: 63%

COc1cc(O)c(C(=O)N2Cc3ccc(CN4CCN(C)CC4)cc3C2)cc1C(C)C [Example 2, (2-Hydroxy-5-isopropyl-4-methoxy-phenyl)-[5-(4-methyl-piperazin-1-ylmethyl)-1,3-dihydro-isoindol-2-yl]-methanone]
Percentage remaining Human blood (Whole blood stability; 120 mins): 122% | Percentage remaining Mouse blood (Whole blood stability; 120 mins): 129% | Percentage remaining Human Liver [1]: 85% | Percentage remaining Mouse Liver [1]: 100%

CCN(CC)C(=O)Oc1cc(OC(=O)N(CC)CC)c(C(C)C)cc1C(=O)N1Cc2ccc(CN3CCN(C)CC3)cc2C1 [Example 10]
Percentage remaining Human blood (Whole blood stability; 120 mins): 108% | Percentage remaining Mouse blood (Whole blood stability; 120 mins): 93% | Percentage remaining Human Liver [1]: 56% | Percentage remaining Mouse Liver [1]: 60%

CC(C)c1cc(C(=O)N2Cc3ccc(CN4CCN(C)CC4)cc3C2)c(OC(=O)N(C)C)cc1O [Example 16, dimethyl-carbamic acid 5-hydroxy-4-isopropyl-2-[5-(4-methyl-piperazin-1-ylmethyl)-1,3-dihydro-isoindole-2-carbonyl]-phenyl ester]
Percentage remaining Human blood (Whole blood stability; 120 mins): 104% | Percentage remaining Mouse blood (Whole blood stability; 120 mins): 91% | Percentage remaining Human Liver [1]: 73% | Percentage remaining Mouse Liver [1]: 82%

From patent US8383619B2, “Pharmaceutical compounds” (Astex Therapeutics Limited, priority 2008, dated 2013)
